Measurements taken from US8247211B2, “Glycopeptide antibiotics” (American Cyanamid Company, priority 2001, dated 2012).
Converted amounts (≈) assume the structure as drawn.

Tests used:
Test in all cases: In vitro antibacterial evaluation: minimum inhibitory concentration (MIC), broth dilution method
Assay type in all cases: cell-based
Streptococcus sp. = tested on: Streptococcus sp.
Method in brief: (§1)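 NCCLS M7-A2 broth dilution with Mueller-Hinton II, testing 64-0.06 μg/mL antibiotic against 5×10^5 CFU/mL inocula. Test strains include recent methicillin-, penicillin- or vancomycin-resistant clinical isolates. MIC is the lowest concentration preventing growth.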

Staphylococcus sp. = conditions: 18 hours at 35° C.
Method in brief: as §1

Escherichia coli = tested on: Escherichia coli
Method in brief: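 An MIC is reported for each organism as the least concentration giving inhibition, using broth dilution over 64-0.06 μg/mL with a 5×10^5 CFU/mL inoculum.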

Enterococcus sp. = tested on: Enterococcus sp.
Method in brief: as §1

Compound: CCCCCCN=C1NCC(C(O)C2NC(=O)C(C(O)C3CNC(=N)N3)NC(=O)C(Cc3ccc(OC4OC(CO)C(OC5OC6COC7(OC6C(O)C5O)C5CC6CC(C5)CC7C6)C(O)C4O)cc3)NC(=O)C(C(C)c3ccccc3)NC(=O)CNC(=O)C(CO)NC2=O)N1C1OC(CO)C(O)C(O)C1O (stereo not drawn) [Example 84]
- MIC Streptococcus agalactiae (GC 4564) (Streptococcus sp.; Streptococcus agalactiae (GC 4564), broth dilution, 18 hours at 35° C.): 1 µg/mL (≈ 0.662 µM)
- MIC Streptococcus pneumoniae (ATCC 6301) (Streptococcus sp.; Streptococcus pneumoniae (ATCC 6301), broth dilution, 18 hours at 35° C.): 1 µg/mL (≈ 0.662 µM)
- MIC Streptococcus pneumoniae (GC 1894) (Streptococcus sp.; Streptococcus pneumoniae (GC 1894), broth dilution, 18 hours at 35° C.): 0.12 µg/mL (≈ 0.0794 µM)
- MIC Streptococcus pneumoniae (GC 4565) (Streptococcus sp.; Streptococcus pneumoniae (GC 4565), broth dilution, 18 hours at 35° C.): 1 µg/mL (≈ 0.662 µM)
- MIC Streptococcus pyogenes (GC 4563) (Streptococcus sp.; Streptococcus pyogenes (GC 4563), broth dilution, 18 hours at 35° C.): 0.5 µg/mL (≈ 0.331 µM)
- MIC Streptococcus pneumoniae (ATCC 6301) (Streptococcus sp.; strain ATCC 6301): 1 µg/mL (≈ 0.662 µM)
- MIC Streptococcus pneumoniae (GC 1894) (Streptococcus sp.; strain GC 1894): 0.12 µg/mL (≈ 0.0794 µM)
- MIC Streptococcus pyogenes (GC 4563) (Streptococcus sp.; strain GC 4563): 0.5 µg/mL (≈ 0.331 µM)
- MIC Streptococcus agalactiae (GC 4564) (Streptococcus sp.; strain GC 4564): 1 µg/mL (≈ 0.662 µM)
- MIC Streptococcus pneumoniae (GC 4565) (Streptococcus sp.; strain GC 4565): 1 µg/mL (≈ 0.662 µM)
- MIC Staphylococcus aureus (ATCC 29213) (Staphylococcus sp.; broth dilution): 8 µg/mL (≈ 5.29 µM)
- MIC Staphylococcus aureus (GC 1131) (Staphylococcus sp.; broth dilution): 8 µg/mL (≈ 5.29 µM)
- MIC Staphylococcus aureus (GC 3051) (Staphylococcus sp.; broth dilution): 8 µg/mL (≈ 5.29 µM)
- MIC Staphylococcus aureus (GC 3053) (Staphylococcus sp.; broth dilution): 8 µg/mL (≈ 5.29 µM)
- MIC Staphylococcus aureus (GC 4541) (Staphylococcus sp.; broth dilution): 4 µg/mL (≈ 2.65 µM)
- MIC Staphylococcus aureus (GC 4542) (Staphylococcus sp.; broth dilution): 8 µg/mL (≈ 5.29 µM)
- MIC Staphylococcus aureus (GC 4544) (Staphylococcus sp.; broth dilution): 8 µg/mL (≈ 5.29 µM)
- MIC Staphylococcus aureus (GC 4545) (Staphylococcus sp.; broth dilution): 8 µg/mL (≈ 5.29 µM)
- MIC Staphylococcus aureus-SMITH (GC 4543) (Staphylococcus sp.; strain SMITH GC 4543, broth dilution): 4 µg/mL (≈ 2.65 µM)
- MIC Escherichia coli (ATCC 25922) (Escherichia coli; strain ATCC 25922): >64 µg/mL
- MIC Escherichia coli (GC 4559) (Escherichia coli; strain GC 4559): 64 µg/mL (≈ 42.3 µM)
- MIC Escherichia coli (GC 4560) (Escherichia coli; strain GC 4560): 4 µg/mL (≈ 2.65 µM)
- MIC Enterococcus faecalis (GC 2242) (Enterococcus sp.; Enterococcus faecalis (GC 2242), broth dilution, 18 hours at 35° C.): 8 µg/mL (≈ 5.29 µM)
- MIC Enterococcus faecalis (GC 2691) (Enterococcus sp.; Enterococcus faecalis (GC 2691), broth dilution, 18 hours at 35° C.): 8 µg/mL (≈ 5.29 µM)
- MIC Enterococcus faecalis (GC 3059) (Enterococcus sp.; Enterococcus faecalis (GC 3059), broth dilution, 18 hours at 35° C.): 8 µg/mL (≈ 5.29 µM)
- MIC Enterococcus faecalis (ATCC 29212) (Enterococcus sp.; strain ATCC 29212): 8 µg/mL (≈ 5.29 µM)
- MIC Enterococcus faecalis (GC 2242) (Enterococcus sp.; strain GC 2242): 8 µg/mL (≈ 5.29 µM)
- MIC Enterococcus faecium (GC 2243) (Enterococcus sp.; strain GC 2243): 4 µg/mL (≈ 2.65 µM)
- MIC Enterococcus faecalis (GC 2691) (Enterococcus sp.; strain GC 2691): 8 µg/mL (≈ 5.29 µM)
- MIC Enterococcus faecalis (GC 3059) (Enterococcus sp.; strain GC 3059): 8 µg/mL (≈ 5.29 µM)
- MIC Enterococcus faecalis (GC 4552) (Enterococcus sp.; strain GC 4552): 8 µg/mL (≈ 5.29 µM)
- MIC Enterococcus faecalis (GC 4553) (Enterococcus sp.; strain GC 4553): 8 µg/mL (≈ 5.29 µM)
- MIC Enterococcus faecalis (GC 4554) (Enterococcus sp.; strain GC 4554): 16 µg/mL (≈ 10.6 µM)
- MIC Enterococcus faecium (GC 4556) (Enterococcus sp.; strain GC 4556): 8 µg/mL (≈ 5.29 µM)
- MIC Enterococcus faecium (GC 4557) (Enterococcus sp.; strain GC 4557): 1 µg/mL (≈ 0.662 µM)
- MIC Enterococcus avium (GC 4558) (Enterococcus sp.; strain GC 4558): 8 µg/mL (≈ 5.29 µM)
- MIC Enterococcus faecalis (GC 6189) (Enterococcus sp.; strain GC 6189): 8 µg/mL (≈ 5.29 µM)

Compound: γ-O-[(Dodecylamino)carbonyl]-cyclo[glycyl-β-methylphenylalanyl-O-(4-O-hexopyranosylhexopyranosyl]tyrosyl-3-(2-iminoimidazolidin-4-yl)seryl-3-(3-hexopyranosyl-2-iminoimidazolidin-4-yl)serylseryl] [Example 254b]
- MIC Streptococcus agalactiae (GC 4564) (Streptococcus sp.; Streptococcus agalactiae (GC 4564), 18 hours at 35° C.): <0.5 µg/mL
- MIC Streptococcus pneumoniae (GC 4565) (Streptococcus sp.; Streptococcus pneumoniae (GC 4565), 18 hours at 35° C.): <0.5 µg/mL
- MIC Streptococcus pyogenes (ID-3187) (Streptococcus sp.; Streptococcus pyogenes (ID-3187), 18 hours at 35° C.): <0.5 µg/mL
- MIC Streptococcus agalactiae (GC 4564) (Streptococcus sp.; broth dilution, 18 hours at 35° C., strain GC 4564): <0.5 µg/mL
- MIC Streptococcus pneumoniae (GC 4565) (Streptococcus sp.; broth dilution, 18 hours at 35° C., strain GC 4565): <0.5 µg/mL
- MIC Streptococcus pyogenes (ID-3187) (Streptococcus sp.; broth dilution, 18 hours at 35° C., strain ID-3187): <0.5 µg/mL
- MIC Coagulase Negative Staphylococcus (GC 4547) (Staphylococcus sp.; Coagulase Negative Staphylococcus (GC 4547)): 8 µg/mL
- MIC Coagulase Negative Staphylococcus (GC 4548) (Staphylococcus sp.; Coagulase Negative Staphylococcus (GC 4548)): 2 µg/mL
- MIC Coagulase Negative Staphylococcus (GC 4549) (Staphylococcus sp.; Coagulase Negative Staphylococcus (GC 4549)): 4 µg/mL
- MIC Coagulase Negative Staphylococcus (GC 4551) (Staphylococcus sp.; Coagulase Negative Staphylococcus (GC 4551)): 4 µg/mL
- MIC Coagulase Negative Staphylococcus (ID-3941) (Staphylococcus sp.; Coagulase Negative Staphylococcus (ID-3941)): 2 µg/mL
- MIC Staphylococcus aureus (ATCC 29213) (Staphylococcus sp.; Staphylococcus aureus (ATCC 29213)): 8 µg/mL
- MIC Staphylococcus aureus (GC 1131) (Staphylococcus sp.; Staphylococcus aureus (GC 1131)): 4 µg/mL
- MIC Staphylococcus aureus (GC 4541) (Staphylococcus sp.; Staphylococcus aureus (GC 4541)): 4 µg/mL
- MIC Staphylococcus aureus (GC 4542) (Staphylococcus sp.; Staphylococcus aureus (GC 4542)): 8 µg/mL
- MIC Staphylococcus aureus (GC 4544) (Staphylococcus sp.; Staphylococcus aureus (GC 4544)): 8 µg/mL
- MIC Staphylococcus aureus (GC 4545) (Staphylococcus sp.; Staphylococcus aureus (GC 4545)): 8 µg/mL
- MIC Staphylococcus aureus-SMITH (GC 4543) (Staphylococcus sp.; Staphylococcus aureus-SMITH (GC 4543)): 4 µg/mL
- MIC Staphylococcus haemolyticus (GC 4546) (Staphylococcus sp.; Staphylococcus haemolyticus (GC 4546)): 8 µg/mL
- MIC Staphylococcus aureus (ATCC 29213) (Staphylococcus sp.; broth dilution, strain ATCC 29213): 8 µg/mL
- MIC Staphylococcus aureus (GC 1131) (Staphylococcus sp.; broth dilution, strain GC 1131): 4 µg/mL
- MIC Staphylococcus aureus (GC 4541) (Staphylococcus sp.; broth dilution, strain GC 4541): 4 µg/mL
- MIC Staphylococcus aureus (GC 4542) (Staphylococcus sp.; broth dilution, strain GC 4542): 8 µg/mL
- MIC Staphylococcus aureus-SMITH (GC 4543) (Staphylococcus sp.; broth dilution, strain GC 4543): 4 µg/mL
- MIC Staphylococcus aureus (GC 4544) (Staphylococcus sp.; broth dilution, strain GC 4544): 8 µg/mL
- MIC Staphylococcus aureus (GC 4545) (Staphylococcus sp.; broth dilution, strain GC 4545): 8 µg/mL
- MIC Staphylococcus haemolyticus (GC 4546) (Staphylococcus sp.; broth dilution, strain GC 4546): 8 µg/mL
- MIC Coagulase Negative Staphylococcus (GC 4547) (Staphylococcus sp.; broth dilution, strain GC 4547): 8 µg/mL
- MIC Coagulase Negative Staphylococcus (GC 4548) (Staphylococcus sp.; broth dilution, strain GC 4548): 2 µg/mL
- MIC Coagulase Negative Staphylococcus (GC 4549) (Staphylococcus sp.; broth dilution, strain GC 4549): 4 µg/mL
- MIC Coagulase Negative Staphylococcus (GC 4551) (Staphylococcus sp.; broth dilution, strain GC 4551): 4 µg/mL
- MIC Coagulase Negative Staphylococcus (ID-3941) (Staphylococcus sp.; broth dilution, strain ID-3941): 2 µg/mL
- MIC Escherichia coli (ATCC 25922) (Escherichia coli; Escherichia coli (ATCC 25922), 18 hours at 35° C.): 64 µg/mL
- MIC Escherichia coli (GC 4559) (Escherichia coli; Escherichia coli (GC 4559), 18 hours at 35° C.): 64 µg/mL
- MIC Escherichia coli (GC 4560) (Escherichia coli; Escherichia coli (GC 4560), 18 hours at 35° C.): 16 µg/mL
- MIC Enterococcus avium (GC 4558) (Enterococcus sp.; Enterococcus avium (GC 4558), 18 hours at 35° C.): 4 µg/mL
- MIC Enterococcus faecalis (ATCC 29212) (Enterococcus sp.; Enterococcus faecalis (ATCC 29212), 18 hours at 35° C.): 8 µg/mL
- MIC Enterococcus faecalis (GC 2242) (Enterococcus sp.; Enterococcus faecalis (GC 2242), 18 hours at 35° C.): 8 µg/mL
- MIC Enterococcus faecalis (GC 4552) (Enterococcus sp.; Enterococcus faecalis (GC 4552), 18 hours at 35° C.): 8 µg/mL
- MIC Enterococcus faecalis (GC 4553) (Enterococcus sp.; Enterococcus faecalis (GC 4553), 18 hours at 35° C.): 4 µg/mL
- MIC Enterococcus faecalis (GC 4554) (Enterococcus sp.; Enterococcus faecalis (GC 4554), 18 hours at 35° C.): 4 µg/mL
- MIC Enterococcus faecium (GC 2243) (Enterococcus sp.; Enterococcus faecium (GC 2243), 18 hours at 35° C.): 4 µg/mL
- MIC Enterococcus faecium (GC 4556) (Enterococcus sp.; Enterococcus faecium (GC 4556), 18 hours at 35° C.): 8 µg/mL
- MIC Enterococcus faecium (GC 4557) (Enterococcus sp.; Enterococcus faecium (GC 4557), 18 hours at 35° C.): 8 µg/mL
- MIC Enterococcus faecalis (ATCC 29212) (Enterococcus sp.; broth dilution, 18 hours at 35° C., strain ATCC 29212): 8 µg/mL
- MIC Enterococcus faecalis (GC 2242) (Enterococcus sp.; broth dilution, 18 hours at 35° C., strain GC 2242): 8 µg/mL
- MIC Enterococcus faecium (GC 2243) (Enterococcus sp.; broth dilution, 18 hours at 35° C., strain GC 2243): 4 µg/mL
- MIC Enterococcus faecalis (GC 4552) (Enterococcus sp.; broth dilution, 18 hours at 35° C., strain GC 4552): 8 µg/mL
- MIC Enterococcus faecalis (GC 4553) (Enterococcus sp.; broth dilution, 18 hours at 35° C., strain GC 4553): 4 µg/mL
- MIC Enterococcus faecalis (GC 4554) (Enterococcus sp.; broth dilution, 18 hours at 35° C., strain GC 4554): 4 µg/mL
- MIC Enterococcus faecium (GC 4556) (Enterococcus sp.; broth dilution, 18 hours at 35° C., strain GC 4556): 8 µg/mL
- MIC Enterococcus faecium (GC 4557) (Enterococcus sp.; broth dilution, 18 hours at 35° C., strain GC 4557): 8 µg/mL
- MIC Enterococcus avium (GC 4558) (Enterococcus sp.; broth dilution, 18 hours at 35° C., strain GC 4558): 4 µg/mL
